Assay results reported in patent publication US6162417A, “Pyrrolo isoquinolines” (Emory University, priority 1998, dated 2000).
Entries after “also recorded” stand apart in the source; their conditions may differ. Read-outs that look alike come from different tables or passages of the source.

Legend:
[1] = molecular target: T1, dopamine transporter (Rattus norvegicus, UniProt P23977); assay: Transporter binding site inhibition in rat brain striatal and cortical membranes - dopamine transporter ([3H]WIN 35428)
T1 construct: in rat cortical and striatal homogenates; from tissue; host or cells: rat brain, striatal and cortical homogenates/membranes
From the text: (§1) Transporter Binding Site Inhibition Data for Various
(§2) Ligands in Rat Brain Striatial and Cortical Membranes

[2] = molecular target: T2, norepinephrine transporter (Rattus norvegicus, UniProt Q63380); assay: Transporter binding site inhibition in rat brain striatal and cortical membranes - norepinephrine transporter ([3H]desmethylimipramine); conditions: vs. [3H]desmethylimipramine, read-out: NE Ki
T2 construct: in rat cortical and striatal homogenates; from tissue; host or cells: rat brain, striatal and cortical homogenates/membranes
From the text: as §1, §2

[3] = molecular target: T3, serotonin transporter (Rattus norvegicus, UniProt P31652); assay: Transporter binding site inhibition in rat brain striatal and cortical membranes - serotonin transporter ([3H]citalopram); conditions: for in vitro affinity/selectivity for the serotonin transporter: rat membranes, Table 2
T3 construct: in rat cortical and striatal homogenates; from tissue; host or cells: rat brain, striatal and cortical homogenates/membranes
From the text: as §1, §2

[4] = molecular target: T4, human dopamine transporter (Homo sapiens, UniProt Q01959); assay: Binding site inhibition in MDCK cell membranes transfected with human dopamine transporter ([3H]WIN 35428)
T4 construct: expressed in transfected cells; host or cells: MDCK (dog kidney) cells, stably transfected

[5] = molecular target: T5, human norepinephrine transporter (Homo sapiens, UniProt P23975); assay: Binding site inhibition in HEK-293 cell membranes transfected with human norepinephrine transporter ([3H]Nisoxetine); conditions: HEK-293 cells, human NE transporter; vs. [3H]Nisoxetine
T5 construct: expressed in transfected cells; host or cells: HEK-293, stably transfected
From the text: ^2 [^3 H]Nisoxetine as reference/control for norepinephrine

[6] = molecular target: T6, human serotonin transporter (Homo sapiens, UniProt P31645); assay: Binding site inhibition in HEK-293 cell membranes transfected with human serotonin transporter ([3H]Citalopram); conditions: for in vitro affinity/selectivity for transporter sites: human transporters, Table 3
T6 construct: expressed in transfected cells; host or cells: HEK-293, stably transfected

[7] = system: serotonin transporter; conditions: carbon-11 label; cited from earlier work
[8] = rat striatal/cortical membranes, vs. [3H]WIN 35428, read-out: DA Ki
[9] = rat striatal/cortical membranes, vs. [3H]citalopram, read-out: 5-HT Ki
[10] = HEK-293 cells, human serotonin transporter, vs. [3H]Citalopram, read-out: 5-HT Ki
[11] = MDCK cells, human DA transporter, vs. [3H]WIN 35428, read-out: DA Ki

T6 sequence (P31645 whole entry): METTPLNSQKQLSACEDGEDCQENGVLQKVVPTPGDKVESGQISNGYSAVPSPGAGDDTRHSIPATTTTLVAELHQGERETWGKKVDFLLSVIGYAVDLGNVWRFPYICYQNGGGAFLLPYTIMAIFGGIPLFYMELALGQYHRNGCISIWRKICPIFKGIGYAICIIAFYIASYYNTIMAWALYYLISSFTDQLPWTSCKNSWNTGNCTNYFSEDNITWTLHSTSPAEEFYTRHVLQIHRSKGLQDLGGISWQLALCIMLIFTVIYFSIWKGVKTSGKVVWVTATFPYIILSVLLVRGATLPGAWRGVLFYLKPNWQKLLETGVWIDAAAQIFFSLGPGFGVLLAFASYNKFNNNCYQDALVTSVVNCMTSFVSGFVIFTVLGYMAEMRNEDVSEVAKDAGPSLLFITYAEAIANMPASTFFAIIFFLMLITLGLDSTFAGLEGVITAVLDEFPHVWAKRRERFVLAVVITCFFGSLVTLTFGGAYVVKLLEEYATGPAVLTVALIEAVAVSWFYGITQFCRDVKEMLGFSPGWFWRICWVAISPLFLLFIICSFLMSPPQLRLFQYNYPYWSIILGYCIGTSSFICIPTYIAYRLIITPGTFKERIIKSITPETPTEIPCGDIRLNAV
T5 sequence (P23975 whole entry): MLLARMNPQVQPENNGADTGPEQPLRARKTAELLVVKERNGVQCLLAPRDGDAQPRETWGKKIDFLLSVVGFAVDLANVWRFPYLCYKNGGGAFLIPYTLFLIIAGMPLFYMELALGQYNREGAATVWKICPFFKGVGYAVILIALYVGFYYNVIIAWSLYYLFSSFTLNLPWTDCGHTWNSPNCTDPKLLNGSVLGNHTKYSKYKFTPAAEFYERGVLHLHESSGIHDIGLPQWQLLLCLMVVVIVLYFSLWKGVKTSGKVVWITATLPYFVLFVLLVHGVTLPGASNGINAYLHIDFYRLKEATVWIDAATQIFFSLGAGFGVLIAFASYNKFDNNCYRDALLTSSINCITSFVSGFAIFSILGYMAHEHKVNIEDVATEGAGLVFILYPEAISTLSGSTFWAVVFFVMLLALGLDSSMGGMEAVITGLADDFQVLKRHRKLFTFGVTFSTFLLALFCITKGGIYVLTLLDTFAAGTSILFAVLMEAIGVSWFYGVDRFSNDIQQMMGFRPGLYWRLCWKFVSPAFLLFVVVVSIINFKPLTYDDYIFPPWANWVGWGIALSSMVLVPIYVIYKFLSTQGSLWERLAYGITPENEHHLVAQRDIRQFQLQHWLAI
T4 sequence (Q01959 whole entry): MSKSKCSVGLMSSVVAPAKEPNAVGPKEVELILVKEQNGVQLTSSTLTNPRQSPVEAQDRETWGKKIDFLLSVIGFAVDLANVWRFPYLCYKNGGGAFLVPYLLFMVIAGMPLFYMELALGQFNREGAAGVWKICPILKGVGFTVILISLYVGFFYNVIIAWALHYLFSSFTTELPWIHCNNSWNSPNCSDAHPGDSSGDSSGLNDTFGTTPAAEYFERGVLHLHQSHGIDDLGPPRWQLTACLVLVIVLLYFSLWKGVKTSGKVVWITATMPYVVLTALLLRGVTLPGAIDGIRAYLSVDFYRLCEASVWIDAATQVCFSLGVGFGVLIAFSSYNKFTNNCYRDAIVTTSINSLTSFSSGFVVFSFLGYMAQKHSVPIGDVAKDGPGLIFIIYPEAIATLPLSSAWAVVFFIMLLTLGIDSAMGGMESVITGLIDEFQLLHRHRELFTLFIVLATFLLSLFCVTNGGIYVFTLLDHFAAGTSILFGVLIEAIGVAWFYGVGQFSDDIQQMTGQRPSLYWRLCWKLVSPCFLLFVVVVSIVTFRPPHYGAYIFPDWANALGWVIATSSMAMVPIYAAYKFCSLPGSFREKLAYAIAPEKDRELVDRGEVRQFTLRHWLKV
T1 sequence (P23977 whole entry): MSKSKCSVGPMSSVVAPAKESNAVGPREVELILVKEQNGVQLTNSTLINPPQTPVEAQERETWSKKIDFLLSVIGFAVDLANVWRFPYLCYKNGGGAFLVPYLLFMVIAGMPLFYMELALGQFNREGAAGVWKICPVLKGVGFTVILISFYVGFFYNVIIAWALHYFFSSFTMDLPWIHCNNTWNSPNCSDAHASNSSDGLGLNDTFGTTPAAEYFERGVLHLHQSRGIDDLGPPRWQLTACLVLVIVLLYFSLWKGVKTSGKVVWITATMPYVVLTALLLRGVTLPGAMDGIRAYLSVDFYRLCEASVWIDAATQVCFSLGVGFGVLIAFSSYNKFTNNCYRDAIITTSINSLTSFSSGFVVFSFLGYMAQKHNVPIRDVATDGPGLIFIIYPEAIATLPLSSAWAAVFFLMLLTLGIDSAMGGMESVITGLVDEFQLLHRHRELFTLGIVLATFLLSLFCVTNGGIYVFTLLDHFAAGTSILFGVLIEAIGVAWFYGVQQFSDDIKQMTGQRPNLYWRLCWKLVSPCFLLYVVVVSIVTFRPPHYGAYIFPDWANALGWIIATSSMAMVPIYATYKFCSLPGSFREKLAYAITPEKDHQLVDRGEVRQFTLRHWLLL
T3 sequence (P31652 whole entry): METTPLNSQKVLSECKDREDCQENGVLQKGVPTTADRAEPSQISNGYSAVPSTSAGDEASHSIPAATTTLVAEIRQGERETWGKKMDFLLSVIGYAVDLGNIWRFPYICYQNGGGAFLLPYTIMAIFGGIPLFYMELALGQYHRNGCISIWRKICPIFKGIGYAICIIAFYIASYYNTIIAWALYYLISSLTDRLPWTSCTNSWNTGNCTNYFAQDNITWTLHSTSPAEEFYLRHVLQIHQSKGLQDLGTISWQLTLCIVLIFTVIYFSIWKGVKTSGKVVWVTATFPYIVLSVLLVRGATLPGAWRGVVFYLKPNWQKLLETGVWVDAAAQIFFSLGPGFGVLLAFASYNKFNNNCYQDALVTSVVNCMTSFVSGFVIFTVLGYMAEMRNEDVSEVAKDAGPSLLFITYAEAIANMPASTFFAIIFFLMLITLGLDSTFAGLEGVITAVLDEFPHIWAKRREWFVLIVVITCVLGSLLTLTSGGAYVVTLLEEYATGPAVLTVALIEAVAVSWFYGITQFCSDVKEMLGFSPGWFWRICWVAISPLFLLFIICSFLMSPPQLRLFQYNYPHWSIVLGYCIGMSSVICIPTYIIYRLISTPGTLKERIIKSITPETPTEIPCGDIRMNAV
T2 sequence (Q63380 1-617): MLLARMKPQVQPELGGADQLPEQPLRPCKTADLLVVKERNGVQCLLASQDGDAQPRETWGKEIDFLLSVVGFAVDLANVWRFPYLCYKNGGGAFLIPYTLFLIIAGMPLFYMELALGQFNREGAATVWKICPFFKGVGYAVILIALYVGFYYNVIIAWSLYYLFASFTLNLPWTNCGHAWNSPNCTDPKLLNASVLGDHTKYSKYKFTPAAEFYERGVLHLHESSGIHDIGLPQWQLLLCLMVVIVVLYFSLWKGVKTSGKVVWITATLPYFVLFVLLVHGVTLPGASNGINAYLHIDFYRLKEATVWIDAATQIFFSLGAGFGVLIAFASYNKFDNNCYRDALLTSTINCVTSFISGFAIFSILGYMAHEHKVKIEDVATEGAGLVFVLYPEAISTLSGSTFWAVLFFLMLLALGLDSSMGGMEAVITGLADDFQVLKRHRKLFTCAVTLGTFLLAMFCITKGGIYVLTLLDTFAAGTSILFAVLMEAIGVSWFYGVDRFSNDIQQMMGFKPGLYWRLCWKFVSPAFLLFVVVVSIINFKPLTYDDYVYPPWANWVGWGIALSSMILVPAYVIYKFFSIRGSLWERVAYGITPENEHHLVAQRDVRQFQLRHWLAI

Row | SMILES | in vitro affinity/selectivity for the serotonin transporter [3] | Ki [5] [nM] | Ki [6, 10] [nM] | in vitro affinity/selectivity for transporter sites [6] | Ki [4, 11] [nM] | Ki [6] [nM] | further results
1 | Brc1ccc([C@@H]2CN3CCC[C@@H]3c3ccccc32)cc1 (relative stereo) [compound 5, trans-1,2,3,5,6,10b-hexahydro-6-[4-bromophenyl]pyrrolo-[2,1-a]isoquinoline] | high in vitro affinity for the serotonin transporter | – | – | – | – | – | Ki [1, 8]: 9.6 nM; Ki [2]: 2390 nM; Ki [3, 9]: 5.1 nM
2 | COC(=O)[C@H]1[C@@H](c2ccc(I)cc2)C[C@@H]2CC[C@H]1N2C [RTI-55 (CIT), reference compound] | – | 38.9 | 0.67 | high affinity for both serotonin and dopamine transporter sites, and is selective for these two sites versus norepinephrine transporter site | – | – | Ki [4]: 0.47 nM
3 | Brc1ccc([C@@H]2CN3CCC[C@@H]3c3ccccc32)cc1 (relative stereo) [racemic Br] | – | 2.3 | 0.68 | – | 0.07 | – | –
4 | Fc1cccc2c1[C@H]1CCCN1C[C@H]2c1ccc(Br)cc1 (relative stereo) [racemic Br, X = F at position 10] | – | 5 | 1.6 | – | 0.15 | – | affinity and selectivity for the dopamine transporter ([4]; human transporters, Table 3): high affinity and selectivity for the dopamine transporter
5 | [11CH3]Sc1ccc([C@H]2CN3CCC[C@H]3c3ccccc32)cc1 [Carbon-11 McN-5652Z] | – | – | – | – | – | – | accumulation in brain regions [7]: greatest accumulation in brain regions rich in serotoninergic neurons
6 | Ic1ccc([C@@H]2CN3CCC[C@@H]3c3ccccc32)cc1 [compound 6, trans (95% ee) (6S, 10bR), (+)-(6S, 10bR)-1,2,3,5,6,10b-hexahydro-6-(4'-iodophenyl)pyrrolo[2,1-a]isoquinoline] | – | 10 | – | – | 0.9 | 0.9 | –
7 | Ic1ccc([C@@H]2CN3CCC[C@@H]3c3ccccc32)cc1 (relative stereo) [compound 6, trans-1,2,3,5,6,10b-hexahydro-6-[4-iodophenyl]pyrrolo-[2,1-a]isoquinoline] | high in vitro affinity and good selectivity for the serotonin transporter | 10 | – | high affinity for both serotonin and dopamine transporter sites, and is selective for these two sites versus norepinephrine transporter site | 0.9 | 0.9 | Ki [1, 8]: 14 nM; Ki [2]: 961 nM; Ki [3, 9]: 2.3 nM
8 | FC/C=C\c1ccc([C@@H]2CN3CCC[C@@H]3c3ccccc32)cc1 (relative stereo) [compound 19, trans-1,2,3,5,6,10b-hexahydro-6-[4'Z-(3-fluoro-1-propenyl)phenyl]pyrrolo-[2,1-a]isoquinoline] | high affinity for and the most selectivity for the serotonin transporter | – | – | high selectivity and affinity for serotonin transporter sites, compared with dopamine transporter site; also recorded: more selective than McN-5652Z for the serotonin transporter site, compared to the dopamine transporter site; also recorded: very high and equal affinity for the serotonin transporter site | 220 | 1 | Ki [1]: 221 nM; Ki [3]: 2.8 nM
9 | FCC#Cc1ccc([C@@H]2CN3CCC[C@@H]3c3ccccc32)cc1 (relative stereo) [racemic C=CCH2 F] | – | 24 | 8.6 | – | 11.3 | – | –
